Laboratory results taken from US20230053540A1, “TREATMENT OF LIVER INJURY” (Massachusetts Institute of Technology, priority 2019, published 2023).

Test system: hepatocytes
Assay: Seq-Well scRNA-Seq of hepatocytes after APAP overdose (signature scores, DEG vs untreated)
Assay type: in vivo, mouse
Conditions: APAP vs UT, composite DEG

CC(=O)Nc1ccc(O)cc1 [APAP, acetaminophen]
Fam134b logFC: 0.8936
Fam214a logFC: −0.2658
Fcgrt logFC: −0.2693
Fdps logFC: −0.2663
Fitm1 logFC: −0.3242
Fkbp4 logFC: −0.3534
Fmo5 logFC: 0.2862
Fn1 logFC: 0.6996
Fpgs logFC: −0.3494
Ftl1 logFC: 1
Furin logFC: 0.4056
Fus logFC: 0.3393
Fxyd5 logFC: 0.2743
G0s2 logFC: 0.3465
G6pc logFC: −0.9601
Gabarap logFC: −0.4425
Gabarapl1 logFC: 0.2607
Gadd45g logFC: −0.614
Gadd45gip1 logFC: −0.3041
Gc logFC: 0.2598
Gcdh logFC: −0.3003
Gch1 logFC: −0.2825
Gcnt2 logFC: 0.5375
Gfra1 logFC: 0.3864
Ggnbp2 logFC: 0.2726
Ghr logFC: −0.3648
Gjb1 logFC: −0.3166
Glo1 logFC: −0.4066
Gltscr2 logFC: 0.2553
Glud1 logFC: 0.451
Glyctk logFC: −0.2977
Gm2a logFC: 0.3831
Gm2788 logFC: −0.2831
Gm4951 logFC: −0.3221
Gm6484 logFC: 0.3043
Gm10800 logFC: 0.5626
Gm10801 logFC: 0.2659
Gm23935 logFC: 1
Gm24245 logFC: 0.5465
Gm24270 logFC: 0.268
Gne logFC: −0.4251
Gnmt logFC: −0.4604
Golga4 logFC: 0.3521
Gpam logFC: 0.2504
Gpld1 logFC: 0.3281
Grhpr logFC: −0.3531
Grlf1 logFC: 0.295
Grn logFC: 0.5408
Gsk3b logFC: 0.4065
Gsta1 logFC: 0.4076
Gsta3 logFC: −0.8063
Gstk1 logFC: −0.2828
Gstm4 logFC: −0.3809
Gstp1 logFC: −0.8558
Gstt3 logFC: 0.3507
Gtpbp4 logFC: 0.4822
Gyk logFC: 0.4024
Gys2 logFC: 0.2744
H6pd logFC: 0.3437
Hadh logFC: 0.2888
Hagh logFC: −0.674
Hamp logFC: −1.021
Hba-a1 logFC: 0.735
Hba-a2 logFC: 0.5535
Hbb-bt logFC: 1.43
Hdac11 logFC: −0.3368
Hdlbp logFC: 0.5651
Herpud1 logFC: 0.5136
Hgd logFC: −0.7586
Hgfac logFC: 0.2522
Hibch logFC: −0.3271
Hint1 logFC: −0.6739
Hipk3 logFC: 0.3394
Hist1h1c logFC: −0.3009
Hmgcl logFC: 0.4738
Hmgcr logFC: 0.4167
Hmgcs1 logFC: −0.3491
Hnf4a logFC: 0.8791
Hnrnpdl logFC: 0.398
Hp logFC: 0.4313
Hsd3b3 logFC: −0.7795
Hsd3b5 logFC: −1.07
Hsd3b7 logFC: −1.006
Hsd17b4 logFC: 0.2532
Hsd17b10 logFC: −0.3772
Hsd17b13 logFC: 0.6808
Hsp90ab1 logFC: 0.3227
Hsp90b1 logFC: 0.5342
Hspa5 logFC: 0.6105
Hspa8 logFC: 0.4204
Huwe1 logFC: 0.3879
Hyou1 logFC: 0.8465
Id3 logFC: −0.3511
Ide logFC: 0.2517
Ifrd1 logFC: 0.4904
Igf1 logFC: 0.2958
Iigp1 logFC: 0.7688
Il1b logFC: 0.7429
Il1r1 logFC: 1.245
Il4ra logFC: 0.2574
Il6ra logFC: 0.3044
Ildr2 logFC: 0.2676
Insig2 logFC: 0.67
Ipo5 logFC: 0.2687
Iqgap1 logFC: 0.4554
Iqgap2 logFC: 0.2547
Ireb2 logFC: 0.2657
Itih3 logFC: 0.5462
Itih4 logFC: 0.5251
Jhdm1d logFC: 0.3041
Kdelr2 logFC: 0.3977
Khk logFC: −0.4915
Kif1b logFC: 0.3718
Kif5b logFC: 0.5012
Kif21a logFC: 0.4042
Klf3 logFC: 0.2674
Klf6 logFC: 0.7324
Klf9 logFC: 0.2934
Kng1 logFC: 0.2658
Krt8 logFC: 1.196
Krt18 logFC: 1.258
Lamp1 logFC: 0.2683
Lap3 logFC: −0.3644
Larp4b logFC: 0.3421
Lasp1 logFC: 0.253
Lcat logFC: 0.4361
Lcp1 logFC: 0.484
Lgals9 logFC: −0.27
Lifr logFC: −0.6262
Lipa logFC: 0.4183
Litaf logFC: 0.3944
Lpgat1 logFC: 0.5952
Lpin2 logFC: 0.6867
Lrg1 logFC: 0.4908
Lrrc58 logFC: 1.001
Lrrfip2 logFC: 0.3731
Lsmd1 logFC: −0.3131
Lyz2 logFC: 0.7322
Macf1 logFC: 0.4042
Magt1 logFC: 0.2633
Man2a1 logFC: 0.4971
Maob logFC: 0.3204
Map3k5 logFC: 0.3347
Mapk6 logFC: 0.2568
Mat2a logFC: 0.4826
Mbl2 logFC: −0.3465
Mbnl1 logFC: 0.4513
Mcee logFC: −0.3199
Mcl1 logFC: 0.5709
Mdh1 logFC: −0.3077
Mdm2 logFC: 0.3283
Med13 logFC: 0.2949
Met logFC: 0.2883
Metap2 logFC: 0.3686
Mettl7a1 logFC: −0.3221
Mettl7b logFC: −0.4527
Mettl20 logFC: −0.3314
Mgll logFC: 0.3339
Mgst1 logFC: −1.06
Mia3 logFC: 0.3646
Mien1 logFC: −0.3704
Mki67ip logFC: 0.3184
Mlycd logFC: 0.313
Mmp8 logFC: 0.359
Mocs2 logFC: −0.3467
Mpeg1 logFC: 0.4935
Mrap logFC: 0.8841
Mrc1 logFC: 0.3404
Mrp63 logFC: −0.4422
Mrpl12 logFC: −0.3082
Mrpl33 logFC: −0.2654
Mrps18c logFC: −0.3663
Mrps24 logFC: −0.3904
Mtdh logFC: 0.3047
Mthfd2 logFC: 0.2624
Mtss1 logFC: 0.2876
Mttp logFC: 0.3115
Mtus1 logFC: 0.3621
Mup1 logFC: 1
Mup4 logFC: −1.087
Mup8 logFC: −0.7958
Mup13 logFC: −0.7757
Mup14 logFC: −0.7608
Mup20 logFC: −0.4762
Mxd1 logFC: 0.2978
Mybbp1a logFC: 0.4312
Myh9 logFC: 1.16
Myl12a logFC: 0.3908
Nadk2 logFC: 0.2579
Naprt1 logFC: −0.3381
Narf logFC: 0.2629
Nars logFC: 0.4378
Ncl logFC: 0.4845
Ndufa1 logFC: −0.3645
Ndufa2 logFC: −0.3965
Ndufa3 logFC: −0.4116
Ndufa4 logFC: −0.6831
Ndufb3 logFC: −0.3272
Ndufb8 logFC: −0.3481
Ndufb10 logFC: −0.3004
Ndufc1 logFC: −0.3444
Ndufc2 logFC: −0.4253
